Source: patent US5216005A, “Immunosuppressive analogues and derivatives of succinylacetone” (priority 1990, dated 1993)

Assays:
[1] = system: peripheral blood lymphocytes; test: viability of peripheral blood lymphocytes with or without PHA, trypan blue exclusion; format: cell-based, human
Description: (§1) Viability was determined using the trypan blue exclusion method well known in the art. […] The assays were conducted in duplicate wherein peripheral blood lymphocytes were isolated from two separate individuals, and then treated with or without phytohemagglutinin in the presence of various concentrations of the appropriate succinylacetone derivative.

[2] = as above; format: cell-based, human; conditions: human, peripheral blood lymphocytes; for viability at 2200 µM: 2.2 mM; for viability at 6700 µM: 6.7 mM; for viability at 20000 µM: 20 mM
Description: as §1

[3] = system: IFN-γ (human lymphoid cells); test: IFN-γ production in primary mixed lymphocyte reaction (WISH cells/EMC virus assay); format: cell-based; set-up: IFN-γ: unit not given here; conditions: for IFN-γ: 1° MLR
Description: Derivatives of succinylacetone were tested for immunosuppressive activity in several different types of assay systems. The first consisted of measuring the amounts of interleukin-2 (IL-2), and interferon-γ (IFN-γ) produced by human lymphoid cells in a mixed lymphocyte reaction. Low levels of these molecules in the reaction mixture indicate that the immune system is being suppressed by the subject succinylacetone derivatives.
IFN-γ was determined by measuring the amount of protection conveyed on human WISH cells against the cytopathic effects of encephalomyocarditis virus (EMC). This assay is described by I. A. Braude, J. of Immunol. Methods 63:237 (1983). Both publications are hereby incorporated by reference.
The mixed lymphocyte reaction assay can be carried out by techniques well known to those skilled in the art. L. Hudson and F. C. Huy, Practical Immunology, p. 260, Blackwell Scientific Publications (1976). Briefly this consists of isolating lymphocytes from human peripheral blood by standard density gradient centrifugation techniques from two separate individuals. Approximately 2×10^5 lymphocytes of each individual are combined to yield a total of 4×10^5 lymphocytes per culture. All procedures are carried out under sterile conditions, and the lymphocytes are isolated and kept in physiologically compatible solutions. To the mixture of lymphocytes is added a desired amount of an appropriate succinylacetone derivative, and after different times an aliquot of the mixture is removed and assayed for IL-2 or IFN-γ, or ^3 H-T is measured.

[4] = system: adjuvant induced arthritis; test: adjuvant induced arthritis in rats, overall arthritis score; intraarticular right paw, per kg: succinylacetone 325 μg, methyl ester 150 μg, 4-acetyl-5-oxohexanoate 560 μg; format: in vivo, rat

COC(=O)CCC(=O)CC(C)=O [Succinylacetone Methyl Ester, methyl 4-6-dioxoheptanoate]
viability ([1]; about 6.7 mM): little viability
Cells/ml ([1]; first individual, (+) PHA, 3 μM): 0.48 X 10^6 Cells/ml
Cells/ml ([1]; first individual, (+) PHA, 9 μM): 0.32 X 10^6 Cells/ml
Cells/ml ([1]; first individual, (+) PHA, 27 μM): 0.37 X 10^6 Cells/ml
Cells/ml ([1]; first individual, (+) PHA, 81 μM): 0.4 X 10^6 Cells/ml
Cells/ml ([1]; first individual, (+) PHA, 244 μM): 0.38 X 10^6 Cells/ml
Cells/ml ([1]; first individual, (+) PHA, 733 μM): 0.4 X 10^6 Cells/ml
Cells/ml ([1]; first individual, (+) PHA, 2.2 mM): 0.3 X 10^6 Cells/ml
Cells/ml ([1]; first individual, (+) PHA, 6.7 mM): 0.13 X 10^6 Cells/ml
Cells/ml ([1]; first individual, (-) PHA, 3 μM): 0.60 X 10^6 Cells/ml
Cells/ml ([1]; first individual, (-) PHA, 9 μM): 0.36 X 10^6 Cells/ml
Cells/ml ([1]; first individual, (-) PHA, 27 μM): 0.60 X 10^6 Cells/ml
Cells/ml ([1]; first individual, (-) PHA, 81 μM): 0.37 X 10^6 Cells/ml
Cells/ml ([1]; first individual, (-) PHA, 244 μM): 0.35 X 10^6 Cells/ml
Cells/ml ([1]; first individual, (-) PHA, 733 μM): 0.34 X 10^6 Cells/ml
Cells/ml ([1]; first individual, (-) PHA, 2.2 mM): 0.36 X 10^6 Cells/ml
Cells/ml ([1]; first individual, (-) PHA, 6.7 mM): 0.15 X 10^6 Cells/ml
Cells/ml ([1]; second individual, (+) PHA, 3 μM): 0.50 X 10^6 Cells/ml
Cells/ml ([1]; second individual, (+) PHA, 9 μM): 0.50 X 10^6 Cells/ml
Cells/ml ([1]; second individual, (+) PHA, 27 μM): 0.40 X 10^6 Cells/ml
Cells/ml ([1]; second individual, (+) PHA, 81 μM): 0.55 X 10^6 Cells/ml
Cells/ml ([1]; second individual, (+) PHA, 244 μM): 0.52 X 10^6 Cells/ml
Cells/ml ([1]; second individual, (+) PHA, 733 μM): 0.39 X 10^6 Cells/ml
Cells/ml ([1]; second individual, (+) PHA, 2.2 mM): 0.42 X 10^6 Cells/ml
Cells/ml ([1]; second individual, (+) PHA, 6.7 mM): 0.24 X 10^6 Cells/ml
Cells/ml ([1]; second individual, (-) PHA, 3 μM): 0.5 X 10^6 Cells/ml
Cells/ml ([1]; second individual, (-) PHA, 9 μM): 0.51 X 10^6 Cells/ml
Cells/ml ([1]; second individual, (-) PHA, 27 μM): 0.43 X 10^6 Cells/ml
Cells/ml ([1]; second individual, (-) PHA, 81 μM): 0.53 X 10^6 Cells/ml
Cells/ml ([1]; second individual, (-) PHA, 244 μM): 0.46 X 10^6 Cells/ml
Cells/ml ([1]; second individual, (-) PHA, 733 μM): 0.48 X 10^6 Cells/ml
Cells/ml ([1]; second individual, (-) PHA, 2.2 mM): 0.42 X 10^6 Cells/ml
Cells/ml ([1]; second individual, (-) PHA, 6.7 mM): 0.23 X 10^6 Cells/ml
viability ([2]; between 2.2 mM and 733 μM): ~100%
viability at 3 µM ([2]; first individual, (+) PHA): 100%
viability at 9 µM ([2]; first individual, (+) PHA): 100%
viability at 27 µM ([2]; first individual, (+) PHA): 97%
viability at 81 µM ([2]; first individual, (+) PHA): 96%
viability at 244 µM ([2]; first individual, (+) PHA): 97%
viability at 733 µM ([2]; first individual, (+) PHA): 90%
viability at 2200 µM ([2]; first individual, (+) PHA): 89%
viability at 6700 µM ([2]; first individual, (+) PHA): 8%
viability at 20000 µM ([2]; first individual, (+) PHA): 0%
viability at 3 µM ([2]; first individual, (-) PHA): 100%
viability at 9 µM ([2]; first individual, (-) PHA): 100%
viability at 27 µM ([2]; first individual, (-) PHA): 100%
viability at 81 µM ([2]; first individual, (-) PHA): 100%
viability at 244 µM ([2]; first individual, (-) PHA): 100%
viability at 733 µM ([2]; first individual, (-) PHA): 96%
viability at 2200 µM ([2]; first individual, (-) PHA): 94%
viability at 6700 µM ([2]; first individual, (-) PHA): 7%
viability at 20000 µM ([2]; first individual, (-) PHA): 0%
viability at 3 µM ([2]; second individual, (+) PHA): 100%
viability at 9 µM ([2]; second individual, (+) PHA): 100%
viability at 27 µM ([2]; second individual, (+) PHA): 94%
viability at 81 µM ([2]; second individual, (+) PHA): 98%
viability at 244 µM ([2]; second individual, (+) PHA): 96%
viability at 733 µM ([2]; second individual, (+) PHA): 94%
viability at 2200 µM ([2]; second individual, (+) PHA): 93%
viability at 6700 µM ([2]; second individual, (+) PHA): 6%
viability at 20000 µM ([2]; second individual, (+) PHA): 0%
viability at 3 µM ([2]; second individual, (-) PHA): 100%
viability at 9 µM ([2]; second individual, (-) PHA): 100%
viability at 27 µM ([2]; second individual, (-) PHA): 100%
viability at 81 µM ([2]; second individual, (-) PHA): 100%
viability at 244 µM ([2]; second individual, (-) PHA): 98%
viability at 733 µM ([2]; second individual, (-) PHA): 95%
viability at 2200 µM ([2]; second individual, (-) PHA): 94%
viability at 6700 µM ([2]; second individual, (-) PHA): 4%
viability at 20000 µM ([2]; second individual, (-) PHA): 0%
IFN-γ ([3]; Exp I, 3 μM): 2558
IFN-γ ([3]; Exp I, 9 μM): 1860
IFN-γ ([3]; Exp I, 27 μM): 2713
IFN-γ ([3]; Exp I, 81 μM): 1628
IFN-γ ([3]; Exp I, 244 μM): 1575
IFN-γ ([3]; Exp I, 733 μM): 1890
IFN-γ ([3]; Exp I, 2.2 mM): 788
IFN-γ ([3]; Exp I, 6.7 mM): < 630
IFN-γ ([3]; Exp I, 20 mM): < 630
IFN-γ ([3]; Exp II, 3 μM): 1313
IFN-γ ([3]; Exp II, 9 μM): 1000
IFN-γ ([3]; Exp II, 27 μM): 1032
IFN-γ ([3]; Exp II, 81 μM): 1094
IFN-γ ([3]; Exp II, 244 μM): 938
IFN-γ ([3]; Exp II, 733 μM): 688
IFN-γ ([3]; Exp II, 2.2 mM): < 375
IFN-γ ([3]; Exp II, 6.7 mM): < 375
IFN-γ ([3]; Exp II, 20 mM): < 375
IC50 ([3]; Homo sapiens, Lymphocyte, primary MLR, read-out: concentration that inhibits IFN-γ production by about 50%): ~733 µM
overall arthritis score ([4]; Exp. I (treated from same day), day 14): 2.4 ± 2.5
overall arthritis score ([4]; Exp. I (treated from same day), day 16): 2.8 ± 2.4
overall arthritis score ([4]; Exp. I (treated from same day), day 18): 3.4 ± 1.9
overall arthritis score ([4]; Exp. I (treated from same day), day 20): 6.4 ± 3.6
overall arthritis score ([4]; Exp. I (treated from same day), day 22): 6.8 ± 4.0
overall arthritis score ([4]; Exp. I (treated from same day), day 24): 7.2 ± 4.1
overall arthritis score ([4]; Exp. I (treated from same day), day 26): 6.2 ± 3.7
overall arthritis score ([4]; Exp. II (treated from day 4), day 14): 1.6 ± 2.6
overall arthritis score ([4]; Exp. II (treated from day 4), day 16): 2 ± 2.8
overall arthritis score ([4]; Exp. II (treated from day 4), day 18): 3.2 ± 4.0
overall arthritis score ([4]; Exp. II (treated from day 4), day 20): 4.0 ± 4.6
overall arthritis score ([4]; Exp. II (treated from day 4), day 22): 4.8 ± 4.1
overall arthritis score ([4]; Exp. II (treated from day 4), day 24): 4.8 ± 4.1
overall arthritis score ([4]; Exp. II (treated from day 4), day 26): 5.6 ± 4.7
overall arthritis score ([4]; Exp. III (treated from day 14), day 14): 1.2 ± 1.8
overall arthritis score ([4]; Exp. III (treated from day 14), day 16): 1.4 ± 1.3
overall arthritis score ([4]; Exp. III (treated from day 14), day 18): 1.4 ± 2.2
overall arthritis score ([4]; Exp. III (treated from day 14), day 20): 4.8 ± 3.8
overall arthritis score ([4]; Exp. III (treated from day 14), day 22): 4.4 ± 3.6
overall arthritis score ([4]; Exp. III (treated from day 14), day 24): 4.4 ± 3.6
overall arthritis score ([4]; Exp. III (treated from day 14), day 26): 3.0 ± 3.3
effect on arthritis ([4]; comparison of treatment schedules, in words): most effective when it is administered 14 days after induction of the disease
